Like-named read-outs stand apart in the source and are kept apart here.
What was measured:
Type in all cases: cell-based, human
[1] = tested on: Target C; test: Splicing RT-qPCR panel, Target C canonical junction (CJ) mRNA; settings: Homo sapiens, read-out: Target C IC50 (decrease in CJ mRNA levels)
In short: (§1)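 A673 or K562 cells treated 24 h at 37 °C with 11-point 3-fold dilutions, top 10 uM, DMSO ≤0.25%. Lysates read by RT-qPCR for CJ and AJ isoforms, normalized to GAPDH, GUSB or PPIA; ΔΔCt vs DMSO converted to RQ, then percent response.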

[2] = tested on: MYB; test: Splicing RT-qPCR assay, MYB mRNA canonical junction (CJ) and alternative junction (AJ); settings: Homo sapiens; for AC50: increase in AJ mRNA
In short: as §1

[3] = tested on: HTT; test: Splicing RT-qPCR assay, HTT mRNA canonical junction (CJ) and alternative junction (AJ); settings: Homo sapiens; for AC50: increase in AJ mRNA
In short: as §1

[4] = tested on: MYB; test: HiBiT protein abundance assay, MYB; settings: Homo sapiens, K562, 24 h, modified K562 cells
In short: (§2)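 K562 cells with endogenous HiBiT-tagged target were treated 24 h at 37 °C with compound (10-point 3-fold dilution, top 10 μM final, DMSO ≤0.25%). Lytic LgBiT luminescence was normalized to unmodified K562 (baseline) and DMSO-treated tagged cells; IC50 interpolated at 50% from four-parameter logistic fit.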

[5] = tested on: SMN2; test: Splicing RT-qPCR panel, SMN2 canonical junction (CJ) mRNA; settings: Homo sapiens, read-out: SMN2 IC50 (decrease in CJ mRNA levels)
In short: as §1

[6] = tested on: HTT; test: HiBiT protein abundance assay, HTT; settings: Homo sapiens, K562, 24 h, modified K562 cells
In short: as §2

[7] = tested on: Target C; test: HiBiT protein abundance assay, Target C; settings: Homo sapiens, K562, 24 h, modified K562 cells
In short: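 HiBiT knock-in K562-derived cells, 10000 cells/well, were treated 24 h at 37 °C with a 10-point 3-fold dilution series (top 10 μM final, DMSO ≤0.25%). Lytic HiBiT luminescence was normalized to unmodified K562 and DMSO controls; IC50 was interpolated at 50% from a four-parameter logistic fit.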

[8] = gene panel, CJ qPCR, protocol of Example 142
[9] = gene panel, CJ qPCR, protocol of Example 142, read-out: MYB IC50 (decrease in CJ mRNA levels)
[10] = gene panel, CJ qPCR, protocol of Example 142, read-out: HTT IC50 (decrease in CJ mRNA levels)
[11] = RT-qPCR panel, canonical junction mRNA, compound concentration having 50% response in CJ decrease
[12] = 24 h, decrease in CJ mRNA, A673 or K562 cells, 24 hours treatment, RT-qPCR, read-out: MYB CJ IC50
[13] = 24 h, A673 or K562 cells, 24 hours treatment, RT-qPCR
[14] = RT-qPCR panel, canonical junction mRNA, compound concentration having 50% response in CJ decrease, read-out: MYB IC50 (decrease in CJ mRNA levels)
[15] = 24 h, decrease in CJ mRNA, A673 or K562 cells, 24 hours treatment, RT-qPCR, read-out: HTT CJ IC50
[16] = RT-qPCR panel, canonical junction mRNA, compound concentration having 50% response in CJ decrease, read-out: HTT IC50 (decrease in CJ mRNA levels)

Row | Structure (SMILES) | IC50 [1, 8] | IC50 [2, 9] | IC50 [3, 10] | IC50 ([4]; Table 13B) | IC50 [5, 8] | IC50 ([6]; Table 13B) | IC50 ([7]; Table 13B) | IC50 [1, 11] | IC50 [2, 12] | AC50 [2, 13] | IC50 [2, 14] | IC50 [3, 15] | AC50 [3, 13] | IC50 [3, 16] | IC50 ([4]; Table 13A) | IC50 [5, 11] | IC50 ([6]; Table 13A) | IC50 ([7]; Table 13A)
1 | COc1nc(-c2ccc(N3CCC(NC4CC4)C3)nn2)ccc1-c1cn[nH]c1 (stereo not shown) [Compound 998] | > 10000 nM | > 10000 nM | 100 to 1000 nM | > 10000 nM | 100 to 1000 nM | 100 to 1000 nM | 1000 to 10000 nM |  |  |  |  |  |  |  |  |  |  | 
2 | Cl.Fc1cc(-c2ccc(NC3CCNCC3)nn2)c2[nH]ncc2c1-c1cn[nH]c1 [Compound 350, 6-[5-fluoro-4-(1H-pyrazol-4-yl)-1H-indazol-7-yl]-N-(piperidin-4-yl)pyridazin-3-amine hydrochloride] |  |  |  |  |  |  |  | > 10000 nM | > 10000 nM | > 10000 nM | > 10000 nM | > 10000 nM | > 10000 nM | > 10000 nM | 1000 to 10000 nM | > 10000 nM | > 10000 nM | > 10000 nM
3 | CN(c1ccc(-c2ccc(-c3ccn(C)c(=O)c3)c3scnc23)nn1)C1CC(C)(C)NC(C)(C)C1 [Compound 174] |  |  |  |  |  |  |  | > 10000 nM | 1000 to 10000 nM | 1000 to 10000 nM | 1000 to 10000 nM | 1000 to 10000 nM | 1000 to 10000 nM | 1000 to 10000 nM | 1000 to 10000 nM | 100 to 1000 nM | 100 to 1000 nM | > 10000 nM
4 | c1nc2c(-c3cn[nH]c3)ccc(-c3ccc(O[C@H]4C[C@H]5COC[C@@H](C4)N5)nn3)c2s1 [Compound 358] |  |  |  |  |  |  |  | > 10000 nM | 1000 to 10000 nM | > 10000 nM | 1000 to 10000 nM | > 10000 nM | > 10000 nM | > 10000 nM | 1000 to 10000 nM | > 10000 nM | > 10000 nM | > 10000 nM
5 | CN(c1ccc(-c2ccc(-c3cn[nH]c3)c(C(F)(F)F)n2)nn1)[C@@H]1C[C@H]2CC[C@@H](C1)N2 [Compound 916] | > 10000 nM | > 10000 nM | > 10000 nM | > 10000 nM | > 10000 nM | > 10000 nM | > 10000 nM |  |  |  |  |  |  |  |  |  |  | 
6 | CC1(C)CC(Oc2ccc(-c3ccc(-c4cn[nH]c4)c(OC4CC4)n3)nn2)CC(C)(C)N1 [Compound 968] | 1000 to 10000 nM | 1000 to 10000 nM | 100 to 1000 nM | 1000 to 10000 nM | 100 to 1000 nM | 100 to 1000 nM | 1000 to 10000 nM |  |  |  |  |  |  |  |  |  |  | 
7 | COc1nc(-c2ccc(OC3CC(C)(C)NC(C)(C)C3)nc2)ccc1-c1cn[nH]c1 [Compound 989] | 1000 to 10000 nM | 1000 to 10000 nM | 100 to 1000 nM | 1000 to 10000 nM | 100 to 1000 nM | 100 to 1000 nM | 100 to 1000 nM |  |  |  |  |  |  |  |  |  |  | 
8 | CN(c1ccc(-c2ccc(-c3cnn(C)c(=O)c3)c3scnc23)nn1)C1CC(C)(C)NC(C)(C)C1 [Compound 211] |  |  |  |  |  |  |  | 100 to 1000 nM | 100 to 1000 nM | 100 to 1000 nM | 100 to 1000 nM | 100 to 1000 nM | 100 to 1000 nM | 100 to 1000 nM | 100 to 1000 nM | 100 to 1000 nM | 100 to 1000 nM | 100 to 1000 nM
9 | COc1nc(-c2ccc(O[C@@H]3C[C@H]4CC[C@@H](C3)N4)nn2)ccc1-c1cn(C)nn1 [Compound 943] | > 10000 nM | > 10000 nM | 1000 to 10000 nM | 1000 to 10000 nM | > 10000 nM | 1000 to 10000 nM | > 10000 nM |  |  |  |  |  |  |  |  |  |  | 
10 | COc1cnc(-c2ccc(-c3ccc(N(C)[C@@H]4C[C@H]5CC[C@@H](C4)N5)nn3)nc2OC)cn1 [Compound 951] | 100 to 1000 nM | 100 to 1000 nM | 100 to 1000 nM | 100 to 1000 nM | 100 to 1000 nM | < 100 nM | 100 to 1000 nM |  |  |  |  |  |  |  |  |  |  | 
11 | COc1nc(-c2ccc(N(C)[C@H]3CCN[C@@H](C)C3)nn2)ccc1-n1cccn1 [Compound 908] | 1000 to 10000 nM | > 10000 nM | > 10000 nM | 1000 to 10000 nM | 1000 to 10000 nM | 1000 to 10000 nM | > 10000 nM |  |  |  |  |  |  |  |  |  |  | 
12 | CC1(C)CC(Oc2ccc(-c3ccc(-c4cn[nH]c4)c4ncsc34)nn2)CC(C)(C)N1 [Compound 181] |  |  |  |  |  |  |  | > 10000 nM | > 10000 nM | > 10000 nM | > 10000 nM | > 10000 nM | > 10000 nM | > 10000 nM | < 100 nM | < 100 nM | < 100 nM | < 100 nM
13 | C[C@@H]1CN(c2ncc(-c3ccc(-c4cn[nH]c4)c4ncsc34)nn2)C[C@H](C)N1 [Compound 562] |  |  |  |  |  |  |  | > 10000 nM |  |  | > 10000 nM |  |  | > 10000 nM | 1000 to 10000 nM | 1000 to 10000 nM | 1000 to 10000 nM | 1000 to 10000 nM
14 | CN1CCCC2(CCN2c2ccc(-c3ccc(-c4cn[nH]c4)c4ncsc34)nn2)C1 (stereo not shown) [Compound 288] |  |  |  |  |  |  |  | > 10000 nM | > 10000 nM | > 10000 nM | > 10000 nM | > 10000 nM | > 10000 nM | > 10000 nM | 100 to 1000 nM | 1000 to 10000 nM | 1000 to 10000 nM | 1000 to 10000 nM
15 | COc1nc(-c2ccc(OC3CC(C)(C)NC(C)(C)C3)nc2)ccc1-c1cnn(C)n1 [Compound 992] | > 10000 nM | > 10000 nM | 1000 to 10000 nM | 1000 to 10000 nM | 1000 to 10000 nM | 100 to 1000 nM | 1000 to 10000 nM |  |  |  |  |  |  |  |  |  |  | 
16 | CCN(c1ccc(-c2ccc(-c3cn[nH]c3)c3cn[nH]c23)nn1)[C@@H]1C[C@H]2CC[C@@H](C1)N2 [Compound 300] |  |  |  |  |  |  |  | 100 to 1000 nM | 1000 to 10000 nM | 100 to 1000 nM | 1000 to 10000 nM | 100 to 1000 nM | 100 to 1000 nM | 100 to 1000 nM | 100 to 1000 nM | 100 to 1000 nM | 100 to 1000 nM | 100 to 1000 nM
17 | Cc1[nH]ncc1-c1ccc(-c2ccc(N(C)C3CC(C)(C)NC(C)(C)C3)nn2)c2ncsc12 [Compound 176] |  |  |  |  |  |  |  | > 10000 nM | > 10000 nM | > 10000 nM | > 10000 nM | > 10000 nM | > 10000 nM | > 10000 nM | 1000 to 10000 nM | > 10000 nM | 1000 to 10000 nM | 1000 to 10000 nM
18 | c1cnn(-c2ccc(-c3ccc(N[C@@H]4C[C@H]5CC[C@@H](C4)N5)nn3)c3[nH]ncc23)c1 [Compound 278] |  |  |  |  |  |  |  | 100 to 1000 nM | 100 to 1000 nM | 100 to 1000 nM | 100 to 1000 nM |  | 100 to 1000 nM | < 100 nM | 100 to 1000 nM | < 100 nM | < 100 nM | < 100 nM
19 | CN(c1ccc(-c2ccc(-c3ccc(=O)n(C)c3)c3ncsc23)nn1)C1CC(C)(C)NC(C)(C)C1 [Compound 281] |  |  |  |  |  |  |  | > 10000 nM | 1000 to 10000 nM | > 10000 nM | 1000 to 10000 nM | > 10000 nM | > 10000 nM | > 10000 nM | 1000 to 10000 nM | 100 to 1000 nM | 1000 to 10000 nM | 1000 to 10000 nM
20 | C[C@@H]1CN(c2ncc(-c3ccc(-n4cccn4)c4[nH]ncc34)nn2)C[C@H](C)N1 [Compound 571] |  |  |  |  |  |  |  | 1000 to 10000 nM |  |  | 1000 to 10000 nM |  |  | 1000 to 10000 nM | 1000 to 10000 nM | 1000 to 10000 nM | 100 to 1000 nM | 1000 to 10000 nM
21 | CCN(c1ccc(-c2ccc(-c3cn[nH]c3)c3cn[nH]c23)nn1)[C@@H]1C[C@H]2CCC[C@@H](C1)N2 [Compound 297] |  |  |  |  |  |  |  | 100 to 1000 nM | 100 to 1000 nM | 100 to 1000 nM | 100 to 1000 nM | 100 to 1000 nM | 100 to 1000 nM | 100 to 1000 nM | 100 to 1000 nM | < 100 nM | 100 to 1000 nM | 100 to 1000 nM
